{
  "source": "patent US6518317B1",
  "about": "“Antiviral agents” (priority 1997, dated 2003)",
  "key": {"[1]": {"test_system": "heat shock protein of 70 kDa", "assay": "Induction of heat shock protein of 70 kDa in HL-60 cells (SDS-PAGE and blotting)", "format": "cell-based, human", "set-up": "key to Induction of Heat Shock Proteins: +++: “+” indicates degree of intensity of induction and the more the numbers of “+”, the more the intensity of induction; ++: “+” indicates degree of intensity of induction and the more the numbers of “+”, the more the intensity of induction; “+” indicates degree of intensity of induction and the more the numbers of “+”, the more the intensity of induction; “±” means the induction was slight; “−” means that no induction was noted", "conditions": "for Induction of Heat Shock Proteins: HL-60 cells, eight hours", "method": "(1) An RPMI 1640 medium (5 ml) containing 10% of fetal bovine serum which contained 2×10^5 cells/ml of human promyelocytic leukemia cells HL-60 (ATCC CCL-240) was placed in each well of a six-well plate, incubated at 37° C. for 24 hours in the presence of 5% of CO2, then the cyclopentenone described in the referential example L was added thereto to make its final concentration 0, 10, 20, 30, 40, 50, or 100 μM and the incubation was further continued for eight hours more.\nAfter completion of the incubation, cell numbers were counted and the cells were recovered by centrifugation and washed with phosphate-buffered saline (PBS) to prepare cyclopentenone-treated cells. In the meanwhile, cells which were heated at 45° C. for ten minutes followed by subjecting to the same incubation were prepared as well.\nThe cells treated as such were subjected to an SDS-polyacrylamid gel electrophoresis (SDS-PAGE) by a method mentioned in “Molecular Cloning” [Cold Spring Harbor Laboratory Press, (1989)]. The treated cells were suspended in an SDS-PAGE sample buffer to make the concentration 2.5×10^6 cells/ml, the resulting cell suspension was treated at 100° C. for ten minutes and each 5 μl thereof was applied to two sheets of SDS-PAGE gels (5% stacking gel; 10% separation gel) to conduct anelectrophoresis. One of the gels was Coomassie stained while another gel was subjected to a blotting to a polyvinylidene difluoride transfer membrane (Immobilon™, manufactured by Millipore, catalog no. IPVH000-10). The membrane was subjected to a blocking at 4° C. for one night with Block Ace (manufactured by Dainippon Pharmaceutical; catalog no. UK-B25).\nThe blocked membrane was made to react with monoclonal antibody HSP 72/73 (Ab-1) (manufactured by Oncogene Research Products, catalog no. HSP01) which would specifically react with heat-induced heat shock protein of 70 kDa and washed with TBS containing 0.05% of Tween 20 followed by further washing with TBS. After that, it was made to react with peroxidase-compounded secondary antibody HRP-Rabbit Anti-Mouse IgG (H+L) (manufactured by Zymed Laboratories, catalog no. 61-6520) and washed by the same manner as in the above operation. The membranes which were treated with primary and secondary antibodies as such were made to react with Renaissance™ (a chemiluminor reagent manufactured by Dupont NEN, catalog no. NEL-100) and photosensitized with an X-ray film to confirm the induction of heat shock protein of 70 kDa.\nThe result was that, by addition of cyclopentenone (20 to 30 μM), induction of heat shock protein of 70 kDa which is almost same as heat-treated at 45° C. for 10 minutes was confirmed. In Table 1, “+” indicates degree of intensity of induction and the more the numbers of “+”, the more the intensity of induction. Incidentally, “−” means that no induction was noted and “±” means the induction was slight."}, "[2]": {"test_system": "adenovirus type 5 (Adenoid 75; ATCC VR-5)", "assay": "Adenovirus hexon protein in HeLa cells, cyclopentenone before and after infection", "format": "cell-based", "conditions": "10 μM or more", "method": "(5) HeLa cells were incubated by the same manner as in Example 2-(2) and treated with the cyclopentenone. After that, the cells were infected by the adenovirus type 5 (Adenoid 75; ATCC VR-5) by the same manner as in Example 2-(4) and incubated in a medium to which the cyclopentenone was added. After the incubation, detection of the hexon proteins of adenovirus was conducted by the same manner as in Example 2-(2)."}, "CEM-SS cells": {"test_system": "CEM-SS cells", "assay": "Survival rate of human T cells, CEM-SS", "format": "cell-based", "conditions": "0.5-5 m M, three days"}, "[3]": {"test_system": "H9 cells infected by HIV-1IIIB (H9-3B)", "assay": "Survival rate of HIV-infected T cells, H9-3B", "format": "cell-based, human", "conditions": "three days", "method": "(§1) The cyclopentenone (1-5 μM) was added to CEM-SS cells infected by HIV-1IIIB (abbreviated as CEM-3B) or to H9 cells infected by HIV-1IIIB (abbreviated as H9-3B) and incubated for three days. In both cells, 90% or more of the cells were infected by HIV-1IIIB. Numbers of living and dead cells were counted and the survival rate of the cells was calculated therefrom.\nThus, FIG. 3 and FIG. 4 are the graphs showing the relation between the concentration of the cyclopentenone added and the survival rate of the cells in which abscissa is the concentration (μM) of the cyclopentenone added While ordinate is the survival rate (%) of the cells after incubating for three days. FIG. 3 is the result when CEM-3B were used while FIG. 4 is the result when H9-3B were used."}, "HIV-1IIIB": {"test_system": "HIV-1IIIB", "assay": "p24 antigen in supernatant liquid of H9-3B culture", "format": "cell-based", "conditions": "three days", "method": "as §1\nConcentration of the p24 antigen contained in the supernatant liquid of the culture after incubation for three days in the case of Example 5-(2) was measured. The result was that the concentration of p24 decreased corresponding to the centration of the cyclopentenone added thereto whereupon the anti-HIV action was noted. In Table 10, the figures in parentheses are the ratio of each of the supernatant liquid of the cell cultures (when none of the cyclopentenone was added) to the concentration of p24 expressed in terms of %."}, "[4]": {"assay": "Anti-inflammatory test of TPA in conchae of mice", "format": "in vivo", "conditions": "2.5 mg (per mouse) applied to concha of the mouse"}, "NIH3T3 cells": {"test_system": "NIH3T3 cells", "assay": "Colony formation of NIH3T3 cells", "conditions": "5 μM, nine days, NIH3T3, three runs"}, "NIH3T3/Y-1": {"test_system": "NIH3T3/Y-1", "assay": "Colony formation of control-vector cell strain NIH3T3/Y-1", "conditions": "5 μM, nine days, NIH3T3/Y-1, three runs"}},
  "data": [
    {"smiles": "O=C1C=CC(O)C1O", "note": "(stereo not shown) [cyclopentenone, 4,5-dihydroxy-2-cyclopenten-1-one]", "values": [
      {"measurement": "concentration at which the ability for inducing HSP70 becomes maximum", "setting": "[1]", "result": "20 to 30", "unit": "µM"},
      {"measurement": "concentration at which the ability for inducing HSP70 is noted", "setting": "[1]", "result": 10, "unit": "µM"},
      {"measurement": "Induction of Heat Shock Proteins", "setting": "[1]; 10 μM", "result": "+"},
      {"measurement": "Induction of Heat Shock Proteins", "setting": "[1]; 20 μM", "result": "+++"},
      {"measurement": "Induction of Heat Shock Proteins", "setting": "[1]; 30 μM", "result": "+++"},
      {"measurement": "Induction of Heat Shock Proteins", "setting": "[1]; 40 μM", "result": "++"},
      {"measurement": "Induction of Heat Shock Proteins", "setting": "[1]; 50 μM", "result": "+"},
      {"measurement": "Induction of Heat Shock Proteins", "setting": "[1]; 100 μM", "result": "±"},
      {"measurement": "ability inducing the HSP70 compared with prostaglandin A1", "setting": "[1]; compared in molar concentration", "result": "equivalent"},
      {"measurement": "amount of the hexon proteins compared with the control", "setting": "[2]", "result": "apparent decrease"},
      {"measurement": "survival rate of the cells", "setting": "CEM-SS cells", "result": "no significant decrease"},
      {"measurement": "survival rate of the cells", "setting": "[3]; 3 μM", "result": "significantly decreased"},
      {"measurement": "survival rate of the cells", "setting": "[3]; 5 μM", "result": "further decreased"},
      {"measurement": "Concentration of p24 in Supernatant Liquid of the cell cultures", "setting": "HIV-1IIIB; 1 μM", "result": 203, "unit": "ng/mL"},
      {"measurement": "ratio to the concentration of p24 when none of the cyclopentenone was added", "setting": "HIV-1IIIB; 1 μM", "result": 97, "unit": "%"},
      {"measurement": "Concentration of p24 in Supernatant Liquid of the cell cultures", "setting": "HIV-1IIIB; 3 μM", "result": 157, "unit": "ng/mL"},
      {"measurement": "ratio to the concentration of p24 when none of the cyclopentenone was added", "setting": "HIV-1IIIB; 3 μM", "result": 75, "unit": "%"},
      {"measurement": "Concentration of p24 in Supernatant Liquid of the cell cultures", "setting": "HIV-1IIIB; 5 μM", "result": 148, "unit": "ng/mL"},
      {"measurement": "ratio to the concentration of p24 when none of the cyclopentenone was added", "setting": "HIV-1IIIB; 5 μM", "result": 70, "unit": "%"},
      {"measurement": "anti-inflammatory activity", "setting": "[4]", "result": "no anti-inflammatory activity"},
      {"measurement": "Numbers (average ± SD) of the Colonies", "setting": "NIH3T3 cells", "result": "85.3 ± 4.0"},
      {"measurement": "Numbers (average ± SD) of the Colonies", "setting": "NIH3T3/Y-1", "result": "71.3 ± 2.3"}
    ]}
  ]
}
